Experimental data as given in ChEMBL document CHEMBL4507294, “Data for DCP probe MSD-CYP11B2” (2021).

Key:
[1] = biological target: 3-phosphoinositide-dependent protein kinase 1 (Homo sapiens) (UniProt O15530); details: Compound concentration 1000.0 nM
[2] = biological target: Mitogen-activated protein kinase kinase kinase kinase 2 (Homo sapiens) (UniProt Q12851); details: Compound concentration 1000.0 nM
[3] = biological target: Tyrosine-protein kinase ABL1 (Homo sapiens) (UniProt P00519); details: Compound concentration 1000.0 nM
[4] = biological target: Rhodopsin kinase GRK7 (Homo sapiens) (UniProt Q8WTQ7); details: Compound concentration 1000.0 nM
Rhodopsin kinase GRK7 (Homo sapiens), sequence (Q8WTQ7 whole entry): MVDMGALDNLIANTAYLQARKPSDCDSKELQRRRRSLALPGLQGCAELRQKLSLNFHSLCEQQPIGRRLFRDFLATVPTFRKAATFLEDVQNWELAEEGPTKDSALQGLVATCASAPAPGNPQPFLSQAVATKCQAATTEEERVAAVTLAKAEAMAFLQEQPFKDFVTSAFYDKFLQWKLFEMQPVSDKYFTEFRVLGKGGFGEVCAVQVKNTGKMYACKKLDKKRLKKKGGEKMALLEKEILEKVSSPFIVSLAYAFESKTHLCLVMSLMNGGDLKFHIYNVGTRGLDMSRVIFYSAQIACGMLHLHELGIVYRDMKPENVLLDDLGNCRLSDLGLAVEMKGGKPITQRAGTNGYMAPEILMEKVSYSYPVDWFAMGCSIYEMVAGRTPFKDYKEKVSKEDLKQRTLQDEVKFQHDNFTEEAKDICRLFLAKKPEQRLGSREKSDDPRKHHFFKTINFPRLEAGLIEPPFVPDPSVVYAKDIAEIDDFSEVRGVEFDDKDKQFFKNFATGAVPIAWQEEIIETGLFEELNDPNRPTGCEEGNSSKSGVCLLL

[5] = biological target: Cyclin-dependent kinase 17 (Homo sapiens) (UniProt Q00537); details: Compound concentration 1000.0 nM
[6] = biological target: Serine/threonine-protein kinase N2 (Homo sapiens) (UniProt Q16513); details: Compound concentration 1000.0 nM
[7] = biological target: Alpha-1B adrenergic receptor (Homo sapiens) (UniProt P35368); details: Compound concentration 10.0 uM
Alpha-1B adrenergic receptor (Homo sapiens), sequence (P35368 whole entry): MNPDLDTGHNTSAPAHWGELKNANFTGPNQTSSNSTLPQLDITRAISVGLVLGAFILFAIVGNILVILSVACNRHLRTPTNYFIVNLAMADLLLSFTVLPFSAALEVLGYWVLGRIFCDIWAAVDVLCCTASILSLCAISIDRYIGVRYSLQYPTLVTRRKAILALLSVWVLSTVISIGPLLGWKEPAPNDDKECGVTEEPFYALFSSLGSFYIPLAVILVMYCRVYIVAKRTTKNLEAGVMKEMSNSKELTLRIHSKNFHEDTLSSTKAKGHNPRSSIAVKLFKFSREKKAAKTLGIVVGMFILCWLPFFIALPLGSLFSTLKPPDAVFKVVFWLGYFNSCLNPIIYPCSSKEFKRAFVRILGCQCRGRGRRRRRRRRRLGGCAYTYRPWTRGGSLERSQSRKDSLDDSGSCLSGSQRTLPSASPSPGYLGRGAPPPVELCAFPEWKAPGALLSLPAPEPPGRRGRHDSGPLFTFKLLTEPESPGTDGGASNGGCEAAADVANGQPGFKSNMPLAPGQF

[8] = tested on: Proto-oncogene tyrosine-protein kinase receptor Ret (Homo sapiens), P07949 [V804L]; details: Compound concentration 1000.0 nM
[9] = biological target: Serine/threonine-protein kinase Chk1 (Homo sapiens) (UniProt O14757); details: Compound concentration 1000.0 nM
[10] = tested on: Receptor-type tyrosine-protein kinase FLT3 (Homo sapiens), P36888 [D835H]; details: Compound concentration 1000.0 nM
[11] = biological target: D(3) dopamine receptor (Homo sapiens) (UniProt P35462); details: Compound concentration 10.0 uM
[12] = biological target: Histamine H2 receptor (Homo sapiens) (UniProt P25021); details: Compound concentration 10.0 uM
[13] = biological target: Mitogen-activated protein kinase kinase kinase kinase 1 (Homo sapiens) (UniProt Q92918); details: Compound concentration 1000.0 nM
[14] = biological target: Discoidin domain-containing receptor 2 (Homo sapiens) (UniProt Q16832); details: Compound concentration 1000.0 nM
[15] = biological target: Mitogen-activated protein kinase kinase kinase 6 (Homo sapiens) (UniProt O95382); details: Compound concentration 1000.0 nM
Mitogen-activated protein kinase kinase kinase 6 (Homo sapiens), sequence (O95382 whole entry): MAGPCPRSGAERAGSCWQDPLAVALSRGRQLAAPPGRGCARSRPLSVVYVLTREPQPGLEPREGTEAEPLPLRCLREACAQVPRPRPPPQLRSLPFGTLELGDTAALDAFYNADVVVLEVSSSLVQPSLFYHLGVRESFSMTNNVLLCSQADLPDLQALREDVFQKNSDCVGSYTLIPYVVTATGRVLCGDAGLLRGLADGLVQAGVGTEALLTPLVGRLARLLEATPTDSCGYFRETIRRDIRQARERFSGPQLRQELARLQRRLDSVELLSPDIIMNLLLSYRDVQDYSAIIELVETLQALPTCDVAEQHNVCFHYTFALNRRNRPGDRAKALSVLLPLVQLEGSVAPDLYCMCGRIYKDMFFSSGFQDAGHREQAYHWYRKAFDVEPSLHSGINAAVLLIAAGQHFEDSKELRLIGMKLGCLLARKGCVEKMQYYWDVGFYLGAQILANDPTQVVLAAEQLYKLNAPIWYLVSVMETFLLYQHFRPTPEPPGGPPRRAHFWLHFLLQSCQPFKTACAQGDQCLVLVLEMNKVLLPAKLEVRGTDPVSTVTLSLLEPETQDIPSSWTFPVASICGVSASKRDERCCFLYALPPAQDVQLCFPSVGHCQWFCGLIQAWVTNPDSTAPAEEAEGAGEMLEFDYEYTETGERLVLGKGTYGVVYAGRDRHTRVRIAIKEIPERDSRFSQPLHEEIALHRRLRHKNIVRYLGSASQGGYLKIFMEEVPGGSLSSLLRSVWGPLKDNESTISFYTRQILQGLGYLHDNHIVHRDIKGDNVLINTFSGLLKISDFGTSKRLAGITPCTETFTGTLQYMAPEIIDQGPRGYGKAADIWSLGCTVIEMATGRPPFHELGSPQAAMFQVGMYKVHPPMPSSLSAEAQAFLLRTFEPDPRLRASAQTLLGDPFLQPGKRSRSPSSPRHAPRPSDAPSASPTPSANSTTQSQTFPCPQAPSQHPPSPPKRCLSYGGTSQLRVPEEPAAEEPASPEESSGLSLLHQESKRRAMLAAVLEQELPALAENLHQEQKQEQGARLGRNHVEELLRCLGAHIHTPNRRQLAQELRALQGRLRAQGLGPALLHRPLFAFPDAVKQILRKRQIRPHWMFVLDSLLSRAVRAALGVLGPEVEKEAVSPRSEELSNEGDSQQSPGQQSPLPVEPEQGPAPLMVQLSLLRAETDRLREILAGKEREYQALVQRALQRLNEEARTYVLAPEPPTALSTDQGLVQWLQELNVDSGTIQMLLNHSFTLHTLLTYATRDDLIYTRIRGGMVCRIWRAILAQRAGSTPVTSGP

[16] = biological target: Cyclin-dependent kinase-like 3 (Homo sapiens) (UniProt Q8IVW4); details: Compound concentration 1000.0 nM
[17] = tested on: Tyrosine-protein kinase ABL1 (Homo sapiens), P00519 [Y253F]; details: Compound concentration 1000.0 nM
[18] = biological target: Atypical kinase COQ8B, mitochondrial (Homo sapiens) (UniProt Q96D53); details: Compound concentration 1000.0 nM
[19] = biological target: Serine/threonine-protein kinase D3 (Homo sapiens) (UniProt O94806); details: Compound concentration 1000.0 nM
[20] = biological target: Phosphatidylinositol 4-kinase beta (Homo sapiens) (UniProt Q9UBF8); details: Compound concentration 1000.0 nM
Phosphatidylinositol 4-kinase beta (Homo sapiens), sequence (Q9UBF8 2-816 limits assumed): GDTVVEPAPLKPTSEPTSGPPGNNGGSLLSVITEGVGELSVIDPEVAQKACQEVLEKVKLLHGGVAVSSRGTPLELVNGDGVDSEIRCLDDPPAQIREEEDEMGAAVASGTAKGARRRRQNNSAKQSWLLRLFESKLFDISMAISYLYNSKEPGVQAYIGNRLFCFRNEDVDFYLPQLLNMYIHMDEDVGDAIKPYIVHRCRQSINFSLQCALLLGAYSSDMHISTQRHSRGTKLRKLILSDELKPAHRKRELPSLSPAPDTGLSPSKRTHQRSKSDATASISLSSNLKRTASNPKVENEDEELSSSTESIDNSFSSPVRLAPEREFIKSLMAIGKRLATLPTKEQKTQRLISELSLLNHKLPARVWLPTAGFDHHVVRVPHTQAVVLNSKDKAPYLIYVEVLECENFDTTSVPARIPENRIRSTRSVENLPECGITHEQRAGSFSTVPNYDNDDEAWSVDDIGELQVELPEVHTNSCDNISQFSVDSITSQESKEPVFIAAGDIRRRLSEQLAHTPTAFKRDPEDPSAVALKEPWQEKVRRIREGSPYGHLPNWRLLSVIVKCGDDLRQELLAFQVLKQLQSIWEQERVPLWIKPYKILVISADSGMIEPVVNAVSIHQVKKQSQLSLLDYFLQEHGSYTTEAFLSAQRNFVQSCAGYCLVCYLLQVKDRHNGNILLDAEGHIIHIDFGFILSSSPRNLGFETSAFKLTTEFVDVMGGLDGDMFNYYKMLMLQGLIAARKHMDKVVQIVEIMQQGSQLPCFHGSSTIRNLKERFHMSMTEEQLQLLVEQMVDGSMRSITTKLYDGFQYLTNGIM

[21] = biological target: Dual specificity tyrosine-phosphorylation-regulated kinase 2 (Homo sapiens) (UniProt Q92630); details: Compound concentration 1000.0 nM
[22] = tested on: Tyrosine-protein kinase ABL1 (Homo sapiens), P00519 [T315I]; details: Compound concentration 1000.0 nM
[23] = biological target: Tyrosine-protein kinase SYK (Homo sapiens) (UniProt P43405); details: Compound concentration 1000.0 nM
[24] = biological target: Receptor-type tyrosine-protein kinase FLT3 (Homo sapiens) (UniProt P36888); details: Compound concentration 1000.0 nM
[25] = biological target: Tyrosine-protein kinase Blk (Homo sapiens) (UniProt P51451); details: Compound concentration 1000.0 nM
[26] = biological target: Serine/threonine-protein kinase Nek10 (Homo sapiens) (UniProt Q6ZWH5); details: Compound concentration 1000.0 nM
Serine/threonine-protein kinase Nek10 (Homo sapiens), sequence (Q6ZWH5 whole entry): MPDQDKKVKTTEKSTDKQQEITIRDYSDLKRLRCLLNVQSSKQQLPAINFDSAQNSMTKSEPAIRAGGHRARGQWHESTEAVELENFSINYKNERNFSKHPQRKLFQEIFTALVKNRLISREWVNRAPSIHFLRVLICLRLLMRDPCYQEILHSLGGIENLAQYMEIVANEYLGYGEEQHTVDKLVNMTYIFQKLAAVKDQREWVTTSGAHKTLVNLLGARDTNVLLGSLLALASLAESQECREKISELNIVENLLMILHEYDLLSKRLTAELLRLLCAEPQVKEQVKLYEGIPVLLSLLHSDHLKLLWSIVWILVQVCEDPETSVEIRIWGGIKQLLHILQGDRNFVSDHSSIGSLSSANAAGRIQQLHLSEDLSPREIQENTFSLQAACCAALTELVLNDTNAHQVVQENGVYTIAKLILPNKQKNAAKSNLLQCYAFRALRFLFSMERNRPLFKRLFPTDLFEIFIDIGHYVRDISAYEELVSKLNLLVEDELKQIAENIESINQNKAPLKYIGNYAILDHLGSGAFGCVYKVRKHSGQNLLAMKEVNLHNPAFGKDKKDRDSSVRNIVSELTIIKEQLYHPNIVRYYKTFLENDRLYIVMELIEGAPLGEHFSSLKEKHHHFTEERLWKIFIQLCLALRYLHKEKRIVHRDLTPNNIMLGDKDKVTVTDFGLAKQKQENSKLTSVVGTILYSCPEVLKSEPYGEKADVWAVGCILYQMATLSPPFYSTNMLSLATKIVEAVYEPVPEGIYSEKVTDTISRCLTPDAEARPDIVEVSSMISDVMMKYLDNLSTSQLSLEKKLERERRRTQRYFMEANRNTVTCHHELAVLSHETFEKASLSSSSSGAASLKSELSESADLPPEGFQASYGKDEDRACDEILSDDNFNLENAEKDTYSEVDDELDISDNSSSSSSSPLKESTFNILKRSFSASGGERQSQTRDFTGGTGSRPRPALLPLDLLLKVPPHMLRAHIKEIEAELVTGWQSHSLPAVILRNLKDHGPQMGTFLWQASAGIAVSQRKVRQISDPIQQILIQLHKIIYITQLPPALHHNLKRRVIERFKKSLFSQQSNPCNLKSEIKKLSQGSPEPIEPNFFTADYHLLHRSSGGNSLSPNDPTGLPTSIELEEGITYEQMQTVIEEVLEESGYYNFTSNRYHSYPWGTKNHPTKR

[27] = biological target: Serine/threonine-protein kinase pim-3 (Homo sapiens) (UniProt Q86V86); details: Compound concentration 1000.0 nM
[28] = biological target: Phosphatidylinositol 4-phosphate 3-kinase C2 domain-containing subunit beta (Homo sapiens) (UniProt O00750); details: Compound concentration 1000.0 nM
[29] = biological target: MAP/microtubule affinity-regulating kinase 3 (Homo sapiens) (UniProt P27448); details: Compound concentration 1000.0 nM
[30] = tested on: Receptor-type tyrosine-protein kinase FLT3 (Homo sapiens), P36888 [D835V]; details: Compound concentration 1000.0 nM
[31] = biological target: Mitogen-activated protein kinase kinase kinase 5 (Homo sapiens) (UniProt Q99683); details: Compound concentration 1000.0 nM
[32] = biological target: Activin receptor type-1-like (Homo sapiens) (UniProt P37023); details: Compound concentration 1000.0 nM
[33] = biological target: 5-hydroxytryptamine receptor 1B (Homo sapiens) (UniProt P28222); details: Compound concentration 10.0 uM
[34] = biological target: Platelet-derived growth factor receptor beta (Homo sapiens) (UniProt P09619); details: Compound concentration 1000.0 nM
[35] = biological target: Mitotic checkpoint serine/threonine-protein kinase BUB1 (Homo sapiens) (UniProt O43683); details: Compound concentration 1000.0 nM
[36] = biological target: Vascular endothelial growth factor receptor 3 (Homo sapiens) (UniProt P35916); details: Compound concentration 1000.0 nM
[37] = biological target: BMP-2-inducible protein kinase (Homo sapiens) (UniProt Q9NSY1); details: Compound concentration 1000.0 nM
[38] = tested on: Epidermal growth factor receptor (Homo sapiens), P00533 [UNDEFINED MUTATION]; details: Compound concentration 1000.0 nM
[39] = biological target: Cytoplasmic tyrosine-protein kinase BMX (Homo sapiens) (UniProt P51813); details: Compound concentration 1000.0 nM
[40] = tested on: Phosphatidylinositol 4,5-bisphosphate 3-kinase catalytic subunit alpha isoform (Homo sapiens), P42336 [H1047Y]; details: Compound concentration 1000.0 nM
[41] = biological target: Serine/threonine-protein kinase PLK3 (Homo sapiens) (UniProt Q9H4B4); details: Compound concentration 1000.0 nM
[42] = biological target: Tyrosine-protein kinase BTK (Homo sapiens) (UniProt Q06187); details: Compound concentration 1000.0 nM
[43] = biological target: Mitogen-activated protein kinase 14 (Homo sapiens) (UniProt Q16539); details: Compound concentration 1000.0 nM
Mitogen-activated protein kinase 14 (Homo sapiens), sequence (Q16539 whole entry): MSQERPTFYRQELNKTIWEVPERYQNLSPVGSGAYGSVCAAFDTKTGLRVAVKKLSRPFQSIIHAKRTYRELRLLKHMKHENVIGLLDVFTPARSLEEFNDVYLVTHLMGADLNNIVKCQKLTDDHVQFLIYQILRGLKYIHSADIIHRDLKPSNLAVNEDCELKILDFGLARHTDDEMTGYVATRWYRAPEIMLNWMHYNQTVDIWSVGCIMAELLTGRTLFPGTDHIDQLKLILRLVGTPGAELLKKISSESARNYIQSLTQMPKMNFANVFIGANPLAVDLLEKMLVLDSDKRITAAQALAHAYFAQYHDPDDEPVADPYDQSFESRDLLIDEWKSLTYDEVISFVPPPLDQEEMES

[44] = biological target: Mitogen-activated protein kinase 1 (Homo sapiens) (UniProt P28482); details: Compound concentration 1000.0 nM
[45] = biological target: Tyrosine-protein kinase ZAP-70 (Homo sapiens) (UniProt P43403); details: Compound concentration 1000.0 nM

FC(F)(F)c1ccc2c(c1)nc(-c1cccnc1)n2C1CC1 [MSD-CYP11B2-Negative-control]
inactive: residual activity [1] 94% | residual activity [2] 73% | residual activity [3] 97% | residual activity [4] 81% | residual activity [5] 100% | residual activity [6] 100% | inhibition [7] 11.7% | residual activity [8] 81% | residual activity [9] 100% | residual activity [10] 69% | inhibition [11] -1.96% | inhibition [12] 6.72% | residual activity [13] 93% | residual activity [14] 100% | residual activity [15] 100% | residual activity [16] 96% | residual activity [17] 100% | residual activity [18] 100% | residual activity [19] 100% | residual activity [20] 94% | residual activity [21] 100% | residual activity [22] 100% | residual activity [23] 100% | residual activity [24] 100% | residual activity [25] 96% | residual activity [26] 100% | residual activity [27] 100% | residual activity [28] 100% | residual activity [29] 100% | residual activity [30] 92% | residual activity [31] 96% | residual activity [32] 100% | inhibition [33] 8.83% | residual activity [34] 100% | residual activity [35] 89% | residual activity [36] 91% | residual activity [37] 100% | residual activity [38] 100% | residual activity [39] 100% | residual activity [40] 78% | residual activity [41] 100% | residual activity [42] 93% | residual activity [43] 99% | residual activity [44] 100% | residual activity [45] 100%

CC(C)(O)c1cncc(-c2nc3ccc(F)cc3n2C2CC2)c1 [MSD-CYP11B2]
inactive: residual activity [1] 97% | residual activity [2] 98% | residual activity [3] 98% | residual activity [4] 86% | residual activity [5] 100% | residual activity [6] 100% | inhibition [7] 23.8% | residual activity [8] 100% | residual activity [9] 100% | residual activity [10] 89% | inhibition [11] -6.18% | inhibition [12] 1.75% | residual activity [13] 99% | residual activity [14] 100% | residual activity [15] 100% | residual activity [16] 84% | residual activity [17] 100% | residual activity [18] 100% | residual activity [19] 100% | residual activity [20] 100% | residual activity [21] 100% | residual activity [22] 100% | residual activity [23] 100% | residual activity [24] 100% | residual activity [25] 98% | residual activity [26] 100% | residual activity [27] 98% | residual activity [28] 95% | residual activity [29] 100% | residual activity [30] 96% | residual activity [31] 100% | residual activity [32] 100% | inhibition [33] 16.8% | residual activity [34] 100% | residual activity [35] 99% | residual activity [36] 100% | residual activity [37] 100% | residual activity [38] 100% | residual activity [39] 100% | residual activity [40] 90% | residual activity [41] 100% | residual activity [42] 83% | residual activity [43] 100% | residual activity [44] 100% | residual activity [45] 100%
